Calls of active or inactive are those of the source. The calls are words filed in the database; no cut-off is given here.
How the values were obtained:
NCI-H460 = test: Cytotoxicity against human NCI-H460 cells assessed as growth inhibition at 10 uM after 24 hrs by SRB assay; assay type: functional
ACHN = test: Cytotoxicity against human ACHN cells assessed as growth inhibition at 10 uM after 24 hrs by SRB assay; assay type: functional
Malme-3M = test: Cytotoxicity against human MALME-3M cells assessed as growth inhibition at 10 uM after 24 hrs by SRB assay; assay type: functional
A549 = test: Cytotoxicity against human A549 cells assessed as growth inhibition at 10 uM after 24 hrs by SRB assay; assay type: functional
HOP-92 [1] = test: Cytotoxicity against human HOP92 cells assessed as growth inhibition at 10 uM after 24 hrs by SRB assay; assay type: functional
SR = test: Cytotoxicity against human SR cells assessed as growth inhibition at 10 uM after 24 hrs by SRB assay; assay type: functional
786-0 [2] = test: Cytotoxicity against human 786-0 cells assessed as growth inhibition at 10 uM after 24 hrs by SRB assay; assay type: functional
TK-10 = test: Cytotoxicity against human TK10 cells assessed as growth inhibition at 10 uM after 24 hrs by SRB assay; assay type: functional
UACC-257 = test: Cytotoxicity against human UACC257 cells assessed as growth inhibition at 10 uM after 24 hrs by SRB assay; assay type: functional; conditions: for inhibition of growth at 10 µM: UACC-257, 24 h, read-out: GI
MCF7 = test: Cytotoxicity against human MCF7 cells assessed as growth inhibition at 10 uM after 24 hrs by SRB assay; assay type: functional; conditions: for inhibition of growth at 10 µM: MCF7, 24 h, read-out: GI
Ovis aries = organism: Ovis aries; test: Inhibition of sheep tubulin polymerization at 100 uM by fluorescence assay
RXF 393 [3] = test: Cytotoxicity against human RXF393 cells assessed as growth inhibition at 10 uM after 24 hrs by SRB assay; assay type: functional; conditions: for inhibition of growth at 10 µM: RXF 393, 24 h, read-out: GI
RPMI-8226 = test: Cytotoxicity against human RPMI8226 cells assessed as growth inhibition at 10 uM after 24 hrs by SRB assay; assay type: functional
SK-MEL-28 = test: Cytotoxicity against human SK-MEL-28 cells assessed as growth inhibition at 10 uM after 24 hrs by SRB assay; assay type: functional
PC-3 = test: Cytotoxicity against human PC3 cells assessed as growth inhibition at 10 uM after 24 hrs by SRB assay; assay type: functional; conditions: for inhibition of growth at 10 µM: PC-3, 24 h, read-out: GI
MDA-MB-231 = test: Cytotoxicity against human MDA-MB-231 cells assessed as growth inhibition at 10 uM after 24 hrs by SRB assay; assay type: functional; conditions: MDA-MB-231, 24 h, read-out: GI
SK-MEL-5 = test: Cytotoxicity against human SK-MEL-5 cells assessed as growth inhibition at 10 uM after 24 hrs by SRB assay; assay type: functional
Hs-578T = test: (§1) Cytotoxicity against human Hs578T cells assessed as growth inhibition at 10 uM after 24 hrs by SRB assay; assay type: functional
SNB-75 [4] = test: Cytotoxicity against human SNB75 cells assessed as growth inhibition at 10 uM after 24 hrs by SRB assay; assay type: functional; conditions: SNB-75, 24 h, read-out: GI
NCI-H226 = test: Cytotoxicity against human NCI-H226 cells assessed as growth inhibition at 10 uM after 24 hrs by SRB assay; assay type: functional
HCT-116 = test: Cytotoxicity against human HCT116 cells assessed as growth inhibition at 10 uM after 24 hrs by SRB assay; assay type: functional
NCI/ADR-RES = test: Cytotoxicity against human NCI/ADR-RES cells assessed as growth inhibition at 10 uM after 24 hrs by SRB assay; assay type: functional
K562 = test: Cytotoxicity against human K562 cells assessed as growth inhibition at 10 uM after 24 hrs by SRB assay; assay type: functional
HOP-62 [5] = test: Cytotoxicity against human HOP62 cells assessed as growth inhibition at 10 uM after 24 hrs by SRB assay; assay type: functional
SF-295 = test: Cytotoxicity against human SF295 cells assessed as growth inhibition at 10 uM after 24 hrs by SRB assay; assay type: functional
OVCAR-4 = test: Cytotoxicity against human OVCAR4 cells assessed as growth inhibition at 10 uM after 24 hrs by SRB assay; assay type: functional
SK-OV-3 = test: Cytotoxicity against human SKOV3 cells assessed as growth inhibition at 10 uM after 24 hrs by SRB assay; assay type: functional
UACC-62 = test: Cytotoxicity against human UACC62 cells assessed as growth inhibition at 10 uM after 24 hrs by SRB assay; assay type: functional
CCRF-CEM = test: Cytotoxicity against human CCRF-CEM cells assessed as growth inhibition at 10 uM after 24 hrs by SRB assay; assay type: functional
MDA-MB-435 = test: Cytotoxicity against human MDA-MB-435 cells assessed as growth inhibition at 10 uM after 24 hrs by SRB assay; assay type: functional
NCI-H522 = test: Cytotoxicity against human NCI-H522 cells assessed as growth inhibition at 10 uM after 24 hrs by SRB assay; assay type: functional
U-251 = test: Cytotoxicity against human U251 cells assessed as growth inhibition at 10 uM after 24 hrs by SRB assay; assay type: functional
SF-539 = test: Cytotoxicity against human SF539 cells assessed as growth inhibition at 10 uM after 24 hrs by SRB assay; assay type: functional
OVCAR-8 = test: Cytotoxicity against human OVCAR8 cells assessed as growth inhibition at 10 uM after 24 hrs by SRB assay; assay type: functional
CAKI-1 = test: Cytotoxicity against human CAKI-1 cells assessed as growth inhibition at 10 uM after 24 hrs by SRB assay; assay type: functional; conditions: for inhibition of growth at 10 µM: CAKI-1, 24 h, read-out: GI
T47D = test: Cytotoxicity against human T47D cells assessed as growth inhibition at 10 uM after 24 hrs by SRB assay; assay type: functional; conditions: for inhibition of growth at 10 µM: read-out: GI
HL-60(TB) = test: Cytotoxicity against human HL-60(TB) cells assessed as growth inhibition at 10 uM after 24 hrs by SRB assay; assay type: functional
OVCAR-3 = test: Cytotoxicity against human OVCAR3 cells assessed as growth inhibition at 10 uM after 24 hrs by SRB assay; assay type: functional
SNB-75 [6] = test: Cytotoxicity against human SNB75 cells after 48 hrs by SRB assay; assay type: functional; conditions: SNB-75, 48 h
RXF 393 [7] = test: Cytotoxicity against human RXF393 cells after 48 hrs by SRB assay; assay type: functional; conditions: RXF 393, 48 h
786-0 [8] = test: Cytotoxicity against human 786-0 cells after 48 hrs by SRB assay; assay type: functional; conditions: 786-0, 48 h
HOP-62 [9] = test: Cytotoxicity against human HOP62 cells after 48 hrs by SRB assay; assay type: functional; conditions: HOP-62, 48 h
HOP-92 [10] = test: Cytotoxicity against human HOP92 cells after 48 hrs by SRB assay; assay type: functional; conditions: HOP-92, 48 h
[11] = as §1; assay type: functional; conditions: Hs-578T, read-out: GI

SMILES: COc1nc(OC)nc(-c2cc(C(=O)c3ccc(Br)cc3)n3ccc(C#N)cc23)n1
- growth inhibition (GI) (NCI-H460): inactive
- growth inhibition (GI) (ACHN): inactive
- growth inhibition (GI) (Malme-3M): inactive
- growth inhibition (GI) (A549): inactive
- growth inhibition (GI) (HOP-92 [1]): inactive
- growth inhibition (GI) (SR): inactive
- growth inhibition (GI) (786-0 [2]): inactive
- growth inhibition (GI) (TK-10): inactive
- inhibition of growth at 10 µM (UACC-257): 11%
- growth inhibition (GI) (MCF7): inactive
- inhibition (Ovis aries): inactive
- inhibition of growth at 10 µM (RXF 393 [3]): 14%
- growth inhibition (GI) (RPMI-8226): inactive
- growth inhibition (GI) (SK-MEL-28): inactive
- growth inhibition (GI) (PC-3): inactive
- inhibition of growth at 10 µM (MDA-MB-231): 11%
- growth inhibition (GI) (SK-MEL-5): inactive
- growth inhibition (GI) (Hs-578T): inactive
- inhibition of growth at 10 µM (SNB-75 [4]): 27%
- growth inhibition (GI) (NCI-H226): inactive
- growth inhibition (GI) (HCT-116): inactive
- growth inhibition (GI) (NCI/ADR-RES): inactive
- growth inhibition (GI) (K562): inactive
- growth inhibition (GI) (HOP-62 [5]): inactive
- growth inhibition (GI) (SF-295): inactive
- growth inhibition (GI) (OVCAR-4): inactive
- growth inhibition (GI) (SK-OV-3): inactive
- growth inhibition (GI) (UACC-62): inactive
- growth inhibition (GI) (CCRF-CEM): inactive
- growth inhibition (GI) (MDA-MB-435): inactive
- growth inhibition (GI) (NCI-H522): inactive
- growth inhibition (GI) (U-251): inactive
- growth inhibition (GI) (SF-539): inactive
- growth inhibition (GI) (OVCAR-8): inactive
- growth inhibition (GI) (CAKI-1): inactive
- growth inhibition (GI) (T47D): inactive
- growth inhibition (GI) (HL-60(TB)): inactive
- growth inhibition (GI) (OVCAR-3): inactive

SMILES: COc1nc(OC)nc(-c2cc(C(=O)c3ccc(C)cc3)n3ccccc23)n1
- growth inhibition (GI) (NCI-H460): inactive
- growth inhibition (GI) (ACHN): inactive
- growth inhibition (GI) (Malme-3M): inactive
- growth inhibition (GI) (A549): inactive
- growth inhibition (GI) (HOP-92 [1]): inactive
- inhibition of growth at 10 µM (SR; read-out: GI): 22%
- growth inhibition (GI) (786-0 [2]): inactive
- growth inhibition (GI) (TK-10): inactive
- growth inhibition (GI) (UACC-257): inactive
- inhibition of growth at 10 µM (MCF7): 10%
- inhibition (Ovis aries): inactive
- growth inhibition (GI) (RXF 393 [3]): inactive
- inhibition of growth at 10 µM (RPMI-8226; RPMI-8226, 24 h, read-out: GI): 26%
- growth inhibition (GI) (SK-MEL-28): inactive
- inhibition of growth at 10 µM (PC-3): 13%
- inhibition of growth at 10 µM (MDA-MB-231): 35%
- inhibition of growth at 10 µM (SK-MEL-5; SK-MEL-5, 24 h, read-out: GI): 19%
- growth inhibition (GI) (Hs-578T): inactive
- inhibition of growth at 10 µM (SNB-75 [4]): 18%
- growth inhibition (GI) (NCI-H226): inactive
- inhibition of growth at 10 µM (HCT-116; HCT-116, 24 h, read-out: GI): 12%
- growth inhibition (GI) (NCI/ADR-RES): inactive
- growth inhibition (GI) (K562): inactive
- growth inhibition (GI) (HOP-62 [5]): inactive
- growth inhibition (GI) (SF-295): inactive
- growth inhibition (GI) (OVCAR-4): inactive
- growth inhibition (GI) (SK-OV-3): inactive
- growth inhibition (GI) (UACC-62): inactive
- inhibition of growth at 10 µM (CCRF-CEM; read-out: GI): 13%
- growth inhibition (GI) (MDA-MB-435): inactive
- growth inhibition (GI) (NCI-H522): inactive
- growth inhibition (GI) (U-251): inactive
- growth inhibition (GI) (SF-539): inactive
- growth inhibition (GI) (OVCAR-8): inactive
- inhibition of growth at 10 µM (CAKI-1): 43%
- inhibition of growth at 10 µM (T47D): 15%
- growth inhibition (GI) (HL-60(TB)): inactive
- growth inhibition (GI) (OVCAR-3): inactive

SMILES: COc1nc(OC)nc(-c2cc(C(=O)c3ccc(Br)cc3)n3ccc4ccccc4c23)n1
- inhibition of growth at 10 µM (NCI-H460; NCI-H460, 24 h, read-out: GI): 71%
- inhibition of growth at 10 µM (ACHN; read-out: GI): 29%
- inhibition of growth at 10 µM (Malme-3M; read-out: GI): 67%
- GI50 (SNB-75 [6]): 2.58 µM
- inhibition of growth at 10 µM (A549; A549, 24 h, read-out: GI): 55%
- growth inhibition (GI) (HOP-92 [1]): inactive
- growth inhibition (GI) (SR): inactive
- inhibition of growth at 10 µM (786-0 [2]; 786-0, 24 h, read-out: GI): 81%
- growth inhibition (GI) (TK-10): inactive
- inhibition of growth at 10 µM (UACC-257): 32%
- inhibition of growth at 10 µM (MCF7): 60%
- GI50 (RXF 393 [7]): 3.57 µM
- inhibition (Ovis aries): inactive
- inhibition of growth at 10 µM (RXF 393 [3]): 81%
- GI50 (786-0 [8]): 4.06 µM
- GI50 (HOP-62 [9]): 22.8 µM
- GI50 (HOP-92 [10]): 13.2 µM
- growth inhibition (GI) (RPMI-8226): inactive
- inhibition of growth at 10 µM (SK-MEL-28; SK-MEL-28, 24 h, read-out: GI): 52%
- inhibition of growth at 10 µM (PC-3): 58%
- inhibition of growth at 10 µM (MDA-MB-231): 96%
- growth inhibition (GI) (SK-MEL-5): inactive
- inhibition of growth at 10 µM [11]: 65%
- inhibition of growth at 10 µM (SNB-75 [4]): 75%
- inhibition of growth at 10 µM (NCI-H226; NCI-H226, 24 h, read-out: GI): 28%
- growth inhibition (GI) (HCT-116): inactive
- inhibition of growth at 10 µM (NCI/ADR-RES; read-out: GI): 46%
- growth inhibition (GI) (K562): inactive
- growth inhibition (GI) (HOP-62 [5]): inactive
- inhibition of growth at 10 µM (SF-295; SF-295, 24 h, read-out: GI): 76%
- inhibition of growth at 10 µM (OVCAR-4; OVCAR-4, 24 h, read-out: GI): 33%
- growth inhibition (GI) (SK-OV-3): inactive
- growth inhibition (GI) (UACC-62): inactive
- growth inhibition (GI) (CCRF-CEM): inactive
- growth inhibition (GI) (MDA-MB-435): inactive
- growth inhibition (GI) (NCI-H522): inactive
- growth inhibition (GI) (U-251): inactive
- growth inhibition (GI) (SF-539): inactive
- inhibition of growth at 10 µM (OVCAR-8; OVCAR-8, 24 h, read-out: GI): 50%
- inhibition of growth at 10 µM (CAKI-1): 44%
- inhibition of growth at 10 µM (T47D): 38%
- growth inhibition (GI) (HL-60(TB)): inactive
- inhibition of growth at 10 µM (OVCAR-3; OVCAR-3, 24 h, read-out: GI): 51%
